One assay concerns S. mutans biofilm. Kind of assay: Streptococcus mutans biofilm formation inhibition. The format is cell-based. As to conditions: 16 h, read-out: IC50 Biofilm.
For assay [1], the system named is Streptococcus gordonii DL1. Kind of assay: Streptococcus gordonii cell growth and biofilm formation. The class given is cell-based. As to conditions: 1.56 μM, P > 0.05.
Assay [2] concerns Streptococcus mutans UA159. Kind of assay: Streptococcus mutans cell growth inhibition. The class given is cell-based.
Assay [3] addresses S. mutans dihydrofolate reductase (SmDHFR) (Streptococcus mutans, UniProt Q8DUI2). Kind of assay: SmDHFR enzymatic activity assay. The class given is biochemical.
The subject of assay [4] is Streptococcus sanguinis SK36. Kind of assay: Streptococcus sanguinis cell growth and biofilm formation. The class given is cell-based. As to conditions: 1.56 μM, P > 0.05.

1 compound from publication PMC4509821 (International journal of antimicrobial agents, 2015) can be followed below.

Values after ≈ are worked out from the molar mass of the structure shown.

With `COc1cc(NCc2ccc3nc(N)nc(N)c3c2C)cc(OC)c1OC` [TMQ, trimetrexate], the IC50 with S. mutans biofilm came out at 49.1 ± 4.1 nM; in assay [2] (UA159, read-out: IC50 Growth) it was 42.5 ± 3.22 nM; in assay [3] it was 2.2 ± 0.7 nM. Also, the “inhibition of biofilm formation of S. gordonii” value in assay [1] was “did not inhibit”. In assay [2] (UA159), this compound registered an MIC of 0.0488 µM (≈ 0.018 µg/mL). This compound returned a Ki in assay [3] of 1.3 ± 0.4 nM. Besides, the “inhibition of biofilm formation of S. sanguinis” value in assay [4] was “did not inhibit”.
